Key:
Type in all cases: in vivo
[1] = system: Erysiphe graminis tritici (powdery mildew); assay: Greenhouse Test 1, foliar spray fungicide screen (POWD MDEW), host wheat; conditions: disease control rating, 400 ppm (+++ at 100 ppm)
[2] = system: Pyricularia oryzae (rice blast); conditions: disease control rating, foliar spray, host rice; 400 ppm (+++ at 100 ppm)
[3] = system: Puccinia recondita tritici (leaf rust); assay: Greenhouse Test 1, foliar spray fungicide screen (LEAF RUST), host wheat; conditions: disease control rating, 400 ppm (+++ at 100 ppm)
[4] = system: Botrytis cinerea (gray mold); assay: Greenhouse Test 1, foliar spray fungicide screen (GRAY MOLD), host grape berries; conditions: disease control rating, 400 ppm (+++ at 100 ppm)
[5] = system: Pseudoperonospora cubensis (downy mildew); assay: Greenhouse Test 1, foliar spray fungicide screen (DOWN MDEW), host squash; conditions: disease control rating, 400 ppm (+++ at 100 ppm)
[6] = system: Cercospora beticola (leaf spot); assay: Greenhouse Test 1, foliar spray fungicide screen (LEAF SPOT), host sugar beet; conditions: disease control rating, 400 ppm (+++ at 100 ppm)
[7] = system: Venturia inaequalis (apple scab); assay: Greenhouse Test 1, foliar spray fungicide screen (APPL SCAB), host apple seedling; conditions: disease control rating, 400 ppm (+++ at 100 ppm)
[8] = system: Septoria tritici (leaf blotch); assay: Greenhouse Test 1, foliar spray fungicide screen (LEAF BLOT), host wheat; conditions: disease control rating, 400 ppm (+++ at 100 ppm)
[9] = system: Southern corn rootworm (Diabrotica undecimpuctata howardi Barber); assay: Mite/insect screen, soil treatment (CRW); conditions: Diabrotica, percent mortality, soil treatment, read-out: CRW RESULTS %; for mortality at 12 ppm: CRW rate 12.00 ppm; for mortality at 24 ppm: CRW rate 24.00 ppm
In short: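 Five 2–3 instar larvae were placed on dry sandy soil with a presoaked corn seed after the soil had received 1 mL of compound solution and dried 6–12 h; cups were kept capped at 23°C. Mortality (%) and phytotoxicity were read after standard exposure. Formulation: acetone/alcohol with emulsifiers, water-diluted.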

[10] = system: southern armyworm (Spodopetra eridania Cramer); assay: Mite/insect screen, sprayed squash leaves (SAW); conditions: Spodoptera eridania, percent mortality, read-out: SAW RESULTS %; for mortality at 200 ppm: spray rate 200 ppm; for mortality at 400 ppm: spray rate 400 ppm
In short: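 Water-diluted formulations of each compound (acetone/alcohol 50:50 with 23 g/L and 13 g/L emulsifier blends) are sprayed over both leaf faces to runoff. After a standard exposure period, percent kill and phytotoxicity are recorded.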

[11] = system: Twospotted spider mites (Tetranychus urticae Koch); assay: Mite/insect screen, sprayed squash cotyledons (SM); conditions: Tetranychus urticae, percent mortality, read-out: SM RESULTS %; for mortality at 200 ppm: spray rate 200 ppm; for mortality at 400 ppm: spray rate 400 ppm
In short: (§1)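 Steps: formulate compound in acetone/alcohol 50:50 carrying emulsifiers; dilute with water; spray leaves until runoff on upper and lower surfaces; air-dry one hour; for armyworm, excise two […] leaves into a dish of larvae; after exposure, score mortality and plant injury.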

[12] = system: melon aphids (Aphis gossypii Glover); assay: Mite/insect screen, sprayed squash cotyledons (MA); conditions: Aphis gossypii, percent mortality, read-out: MA RESULTS %; for mortality at 200 ppm: spray rate 200 ppm; for mortality at 400 ppm: spray rate 400 ppm
In short: as §1

Compound | POWD MDEW [1] | RICE BLAST [2] | LEAF RUST [3] | GRAY MOLD [4] | DOWN MDEW [5] | LEAF SPOT [6] | APPL SCAB [7] | LEAF BLOT [8] | mortality at 12 ppm [9] [%] | mortality at 200 ppm [10] [%] | mortality at 200 ppm [11] [%] | mortality at 200 ppm [12] [%] | mortality at 24 ppm [9] [%] | mortality at 400 ppm [10] [%] | mortality at 400 ppm [11] [%] | mortality at 400 ppm [12] [%]
Cc1ccc(CCNc2nc(NCCc3ccc(C)cc3)c3ccccc3n2)cc1 [Example 28, N,N'-bis[2-(4-methylphenyl)ethyl]-2,4-quinazolinediamine] | - (- = 0-19% control at 400 ppm) | + (+ = 20-89% control at 400 ppm) | ++ (++ = 90-100% control at 400 ppm) | - (- = 0-19% control at 400 ppm) | + (+ = 20-89% control at 400 ppm) | - (- = 0-19% control at 400 ppm) | - (- = 0-19% control at 400 ppm) | - (- = 0-19% control at 400 ppm) | 0 | 0 | 0 | 0 |  |  |  | 
CC(Cc1ccccc1)Nc1nc(NC(C)Cc2ccccc2)c2ccccc2n1 (stereo not shown) [Example 26, N,N'-bis(1-methyl-2-phenylethyl)-2,4-quinazolinediamine] | - (- = 0-19% control at 400 ppm) | ++ (++ = 90-100% control at 400 ppm) | ++ (++ = 90-100% control at 400 ppm) | - (- = 0-19% control at 400 ppm) | +++ (+++ = 90-100% control at 100 ppm) | + (+ = 20-89% control at 400 ppm) | - (- = 0-19% control at 400 ppm) | + (+ = 20-89% control at 400 ppm) | 0 | 0 | 0 | 0 |  |  |  | 
Fc1cccc2c(NCCc3ccc4ccccc4c3)ncnc12 [Example 31, 8-fluoro-N-[2-(2-naphthyl)ethyl]-4-quinazolinamine] | + (+ = 20-89% control at 400 ppm) | +++ (+++ = 90-100% control at 100 ppm) | +++ (+++ = 90-100% control at 100 ppm) | - (- = 0-19% control at 400 ppm) | ++ (++ = 90-100% control at 400 ppm) | + (+ = 20-89% control at 400 ppm) | - (- = 0-19% control at 400 ppm) | +++ (+++ = 90-100% control at 100 ppm) | 0 | 80 | 0 | 40 | 0 | 30 | 0 | 0
CC(=O)N(CCc1ccc2ccccc2c1)c1ncnc2ccccc12 [Example 81, N-[2-(2-naphthyl)ethyl]-N-4-quinazolinylacetamide] | + (+ = 20-89% control at 400 ppm) | ++ (++ = 90-100% control at 400 ppm) | + (+ = 20-89% control at 400 ppm) | - (- = 0-19% control at 400 ppm) | + (+ = 20-89% control at 400 ppm) | - (- = 0-19% control at 400 ppm) | + (+ = 20-89% control at 400 ppm) | - (- = 0-19% control at 400 ppm) | 0 | 0 | 50 | 0 | 0 | 0 | 0 | 0
CC(=O)N(CCc1ccc(-c2ccccc2)cc1)c1ncnc2ccccc12 [Example 108, N-[2-(1,1'-biphenyl)-4-ylethyl]-N-(4-quinazolinyl)acetamide] | + (+ = 20-89% control at 400 ppm) | +++ (+++ = 90-100% control at 100 ppm) | + (+ = 20-89% control at 400 ppm) | - (- = 0-19% control at 400 ppm) | +++ (+++ = 90-100% control at 100 ppm) | ++ (++ = 90-100% control at 400 ppm) | - (- = 0-19% control at 400 ppm) | +++ (+++ = 90-100% control at 100 ppm) | 0 | 0 | 60 | 30 | 0 | 0 | 90 | 20
CC(CNc1nc(NCC(C)c2ccccc2)c2ccccc2n1)c1ccccc1 (stereo not shown) [Example 27, N,N'-bis(2-phenylpropyl)-2,4-quinazolinediamine] | - (- = 0-19% control at 400 ppm) | + (+ = 20-89% control at 400 ppm) | + (+ = 20-89% control at 400 ppm) | - (- = 0-19% control at 400 ppm) | +++ (+++ = 90-100% control at 100 ppm) | - (- = 0-19% control at 400 ppm) | - (- = 0-19% control at 400 ppm) | + (+ = 20-89% control at 400 ppm) | 0 | 0 | 0 | 0 |  |  |  | 
c1ccc(Oc2cccc(CCNc3ncnc4ccccc34)c2)cc1 [Example 38, N-[2-(3-phenoxyphenyl)ethyl]-4-quinazolinamine] | ++ (++ = 90-100% control at 400 ppm) | +++ (+++ = 90-100% control at 100 ppm) | +++ (+++ = 90-100% control at 100 ppm) | - (- = 0-19% control at 400 ppm) | +++ (+++ = 90-100% control at 100 ppm) | + (+ = 20-89% control at 400 ppm) | + (+ = 20-89% control at 400 ppm) | ++ (++ = 90-100% control at 400 ppm) | 0 | 40 | 0 | 0 | 100 | 40 | 90 | 80
c1csc(CCOc2ncnc3ccccc23)c1 [Example 54, 4-[2-(2-thienyl)ethoxy]quinazoline] | ++ (++ = 90-100% control at 400 ppm) | ++ (++ = 90-100% control at 400 ppm) | ++ (++ = 90-100% control at 400 ppm) | - (- = 0-19% control at 400 ppm) | ++ (++ = 90-100% control at 400 ppm) | + (+ = 20-89% control at 400 ppm) | + (+ = 20-89% control at 400 ppm) | + (+ = 20-89% control at 400 ppm) | 0 | 0 | 0 | 0 |  |  |  | 
c1ccc(CCCc2ncnc3ccccc23)cc1 [Example 29, 4-(3-phenylpropyl)quinazoline] | + (+ = 20-89% control at 400 ppm) | +++ (+++ = 90-100% control at 100 ppm) | ++ (++ = 90-100% control at 400 ppm) | - (- = 0-19% control at 400 ppm) | ++ (++ = 90-100% control at 400 ppm) | - (- = 0-19% control at 400 ppm) | + (+ = 20-89% control at 400 ppm) | - (- = 0-19% control at 400 ppm) |  |  |  |  | 0 | 0 | 80 | 80
